Reference: US20110039763A1, “TARGETED ANTIMICROBIAL MOIETIES” (C3 JIAN, INC., priority 2009, published 2011)
“Also recorded” adds a separate entry of the source.

Legend:
[1] = system: microorganisms; experiment: Targeting peptide binding to target microorganisms (Tables 3, 10, 12); details: peptide binding in aqueous buffers that varied with peptide solubility; preferably 1x PBS
Text: In certain embodiments, the targeting moiety comprises one or more targeting peptides that bind particular bacteria, fungi, and/or yeasts, and/or algae, and/or viruses and/or that bind particular groups of bacteria, and/or groups of fungi, and/or groups of yeasts, and/or groups of algae.
In certain embodiments the targeting peptides include peptides comprising or consisting of one or more of the amino acid sequences shown in Table 3 (SEQ ID NOs:13-1566). In various embodiments the peptides include peptides comprising or consisting of the retro, inverso, retro-inverso, and/or beta form of one or more of the amino acid sequences shown in Table 3. Also contemplated are circular permutations of these sequences as well as peptides comprising or consisting of the retro, inverso, retro-inverso, and/or beta form of such circular permutations.
In certain embodiments the targeting peptide can comprise one or more domains capable of binding, specifically binding, or preferentially binding to a microorganism, e.g., a target microbial organism (see, e.g., Table 3). In certain embodiment, the targeting peptide be identified via screening peptide libraries. For example, a phage display peptide library can be screened against a target microbial organism or a desired antigen or epitope thereof. Any peptide identified through such screening can be used as a targeting peptide for the target microbial organism.

[2] = system: microorganisms; experiment: Morphology, biofilm and growth disrupting peptides (Table 5); type: cell-based; parameters: key: A: Peptide aggregates; B: Less hyphal formation; Clumps; Diffuse clumps and small polyps; F: Diffuse growth; H: Thin; I: Growth inhibition; Microcolony formation; Rippled; Small polyps; Thick; W: Halo formation on top, microlonies on bottom
Text: In certain embodiments peptides that induce alterations in phenotype or other biological activities can also be used as antimicrobial effector moieties.

1T-3 (VLGIAGGLDAYGELVGGN; Peptide with targeting and/or antimicrobial activity)
Target(s) (microorganism bound by the targeting peptide) [1]: S. mutans; also recorded: S. gordonii

DLLKSLLGQDGAKNDEIIEFIKIIMEK [PF-591]
Organism, effect ([2]; C. jejuni): C. jejuni (C)
Organism, effect ([2]; E. faecalis): E. faecalis (A)
Organism, effect ([2]; S. pneumoniae): S. pneumoniae (R)

KTPNDKIHKTIIIKHIIL [PF-533]
Organism, effect ([2]; E. coli): E. coli (R)
Organism, effect ([2]; E. faecalis): E. faecalis (C)
Organism, effect ([2]; MRSA): MRSA (H)
Organism, effect ([2]; S. epidermidis): S. epidermidis (H)
Organism, effect ([2]; S. pneumoniae): S. pneumoniae (C)

PF-019 (NDTNK; Peptide with targeting and/or antimicrobial activity)
Organism, effect: MRSA ([2]; MRSA): MRSA (M)

PF-032 (RIVVPAHQSNMASTPNLSITP; Peptide with targeting and/or antimicrobial activity)
Organism, effect: C. jeikeium [2]: C. jeikeium (C)
Organism, effect: S. epidermidis ([2]; S. epidermidis): S. epidermidis (S)

PF-059 (TITLKAGIERALHEEVPGVIEVEQVF; Peptide with targeting and/or antimicrobial activity)
Organism, effect: C. jejuni ([2]; C. jejuni): C. jejuni (C)

PF-199 (FPAFSFGAIAGSVSVAR; Peptide with targeting and/or antimicrobial activity)
Organism, effect: C. jeikeium [2]: C. jeikeium (R)
Organism, effect: M. luteus ([2]; M. luteus): M. luteus (A)
Organism, effect: S. epidermidis ([2]; S. epidermidis): S. epidermidis (C)

PF-220 (VDPADDGTRHIRPEDGDPIEIDE; Peptide with targeting and/or antimicrobial activity)
Organism, effect: S. pneumoniae ([2]; S. pneumoniae): S. pneumoniae (H)

PF-250 (SEDIFGRLANEKANGLEELRKIRLKQ; Peptide with targeting and/or antimicrobial activity)
Organism, effect: M. luteus ([2]; M. luteus): M. luteus (T)

PF-264 (MQSLSNRQSLIASYILMGIFLSFGYPPASLSKFFCRLSHL; Peptide with targeting and/or antimicrobial activity)
Organism, effect: M. luteus ([2]; M. luteus): M. luteus (H)

PF-274 (SIQEAEKIIKNDPFYIHDVADYDFMWFEPSKSLEEIKEFV; Peptide with targeting and/or antimicrobial activity)
Organism, effect: M. luteus ([2]; M. luteus): M. luteus (M)

PF-290 (MVHDMTNGTLIIVKH; Peptide with targeting and/or antimicrobial activity)
Organism, effect: S. epidermidis ([2]; S. epidermidis): S. epidermidis (C)

PF-293 (YDPLK; Peptide with targeting and/or antimicrobial activity)
Organism, effect: S. epidermidis ([2]; S. epidermidis): S. epidermidis (C)

PF-296 (GAFGMPSIKTNTICGEKGKFISACDAWLSNLK; Peptide with targeting and/or antimicrobial activity)
Organism, effect: B. subtilis ([2]; B. subtilis): B. subtilis (C)
Organism, effect: S. epidermidis ([2]; S. epidermidis): S. epidermidis (C)

PF-303 (EYPWSWISEPWPWDKSFYK; Peptide with targeting and/or antimicrobial activity)
Organism, effect: B. subtilis ([2]; B. subtilis): B. subtilis (C)

PF-310 (GVALIGTILVPLLSGLFG; Peptide with targeting and/or antimicrobial activity)
Organism, effect: S. epidermidis ([2]; S. epidermidis): S. epidermidis (C)

PF-318 (MGRHLWNPSYFVATVSENTEEQIRKYINNQKKQVK; Peptide with targeting and/or antimicrobial activity)
Organism, effect: B. subtilis ([2]; B. subtilis): B. subtilis (C)
Organism, effect: S. epidermidis ([2]; S. epidermidis): S. epidermidis (C)

PF-335 (AAYPIEDWSDWYEDFFIMLSNI; Peptide with targeting and/or antimicrobial activity)
Organism, effect: B. subtilis ([2]; B. subtilis): B. subtilis (C)
Organism, effect: S. epidermidis ([2]; S. epidermidis): S. epidermidis (C)

PF-339 (KKIDILINKYMYLSK; Peptide with targeting and/or antimicrobial activity)
Organism, effect: B. subtilis ([2]; B. subtilis): B. subtilis (C)
Organism, effect: S. epidermidis ([2]; S. epidermidis): S. epidermidis (C)

PF-342 (AFSGVYKTLIVYTRRK; Peptide with targeting and/or antimicrobial activity)
Organism, effect: B. subtilis ([2]; B. subtilis): B. subtilis (C)
Organism, effect: S. epidermidis ([2]; S. epidermidis): S. epidermidis (C)

PF-415 (MIDVTIGQKSKTGAFNASYSICFSGENFSF; Peptide with targeting and/or antimicrobial activity)
Organism, effect: S. pneumoniae ([2]; S. pneumoniae): S. pneumoniae (D)

PF-419 (VVTGKVGSLPQIK; Peptide with targeting and/or antimicrobial activity)
Organism, effect: S. pneumoniae ([2]; S. pneumoniae): S. pneumoniae (H)

PF-449 (MPTTKSKQKGWTNTKKASNTQ; Peptide with targeting and/or antimicrobial activity)
Organism, effect ([2]; S. pneumoniae): S. pneumoniae (H)

PF-455 (MARNDDDIKKIKGTLGQSPEVYGERKLPYT; Peptide with targeting and/or antimicrobial activity)
Organism, effect ([2]; S. pneumoniae): S. pneumoniae (A)

PF-468 (EDNKDKKDKKDK; Peptide with targeting and/or antimicrobial activity)
Organism, effect ([2]; S. pneumoniae): S. pneumoniae (H)

PF-485 (KNSMSRSIALID; Peptide with targeting and/or antimicrobial activity)
Organism, effect ([2]; S. pneumoniae): S. pneumoniae (A)

PF-532 (KFIYKYKLSFIIYKILIQTLTMELNK; Peptide with targeting and/or antimicrobial activity)
Organism, effect ([2]; E. coli): E. coli (C)
Organism, effect ([2]; E. faecalis): E. faecalis (C)
Organism, effect ([2]; MRSA): MRSA (C)
Organism, effect ([2]; S. pneumoniae): S. pneumoniae (C)

PF-534 (KYFHLFYHNIIHYSKQHLSLKVDFKN; Peptide with targeting and/or antimicrobial activity)
Organism, effect ([2]; E. coli): E. coli (R)
Organism, effect ([2]; E. faecalis): E. faecalis (C)
Organism, effect ([2]; MRSA): MRSA (C)
Organism, effect ([2]; S. epidermidis): S. epidermidis (C)
Organism, effect ([2]; S. pneumoniae): S. pneumoniae (R)

PF-535 (NIKTRKRALKIIKQHQRSK; Peptide with targeting and/or antimicrobial activity)
Organism, effect ([2]; P. aeruginosa): P. aeruginosa (H)
Organism, effect ([2]; S. pneumoniae): S. pneumoniae (H)

PF-536 (MEPIPHIMIIANQIGIIIEKA; Peptide with targeting and/or antimicrobial activity)
Organism, effect ([2]; E. coli): E. coli (R)
Organism, effect ([2]; E. faecalis): E. faecalis (C)
Organism, effect ([2]; MRSA): MRSA (C)
Organism, effect ([2]; P. aeruginosa): P. aeruginosa (H)
Organism, effect ([2]; S. epidermidis): S. epidermidis (C)
Organism, effect ([2]; S. pneumoniae): S. pneumoniae (M)

PF-541 (RRNLNSPNIKTRKRALKIIKQHQRSK; Peptide with targeting and/or antimicrobial activity)
Organism, effect ([2]; E. coli): E. coli (H)
Organism, effect ([2]; S. pneumoniae): S. pneumoniae (H)

PF-561 (ESLEADVQAELDTEAAKYPALPASF; Peptide with targeting and/or antimicrobial activity)
Organism, effect ([2]; B. subtilis): B. subtilis (D)
Organism, effect ([2]; MRSA): MRSA (M)

PF-565 (RAEAEAQRQAEADAKRKAEEAARL; Peptide with targeting and/or antimicrobial activity)
Organism, effect ([2]; B. subtilis): B. subtilis (D)
Organism, effect ([2]; MRSA): MRSA (C)

PF-571 (SDLLYYPNENREDSPAGVVKEVKE; Peptide with targeting and/or antimicrobial activity)
Organism, effect ([2]; B. subtilis): B. subtilis (D)

PF-574 (LVKSGKLESPYEHSEHLTLSQEKGLE; Peptide with targeting and/or antimicrobial activity)
Organism, effect ([2]; B. subtilis): B. subtilis (D)

PF-582 (NLKTIEKECPFCNNKMDIKLKD; Peptide with targeting and/or antimicrobial activity)
Organism, effect ([2]; E. faecalis): E. faecalis (A)

PF-618 (KLNTLNKKDNPSLNDQDKNAVLNLLALAK; Peptide with targeting and/or antimicrobial activity)
Organism, effect ([2]; E. faecalis): E. faecalis (H)
Organism, effect ([2]; S. pneumoniae): S. pneumoniae (I)

PF-624 (VFLLDSYCFVKINL; Peptide with targeting and/or antimicrobial activity)
Organism, effect ([2]; E. coli): E. coli (C)
Organism, effect ([2]; M. luteus): M. luteus (C)
Organism, effect ([2]; MRSA): MRSA (C)
Organism, effect ([2]; P. mirabilis): P. mirabilis (C)
Organism, effect ([2]; S. epidermidis): S. epidermidis (D)
Organism, effect ([2]; S. mutans): S. mutans (D)
Organism, effect ([2]; S. pneumoniae): S. pneumoniae (D)

PF-670 (chain 1 TVIVAPMHSGV; chain 2 TVIVAPMHSGV; Peptide with targeting and/or antimicrobial activity)
Organism, effect ([2]; B. subtilis): B. subtilis (H)
Organism, effect ([2]; S. pneumoniae): S. pneumoniae (H)

PF-C089 (MPKRHYYKLEAKALQFGLPFAYSPIQLLK; Peptide with targeting and/or antimicrobial activity)
Organism, effect ([2]; P. gingivalis): P. gingivalis (R)

PF-C214 (GGHKQLVIEPLVSQ; Peptide with targeting and/or antimicrobial activity)
Organism, effect ([2]; F. nucleatum): F. nucleatum (T)

PF-C293 (IIIILPKIYLVCKTV; Peptide with targeting and/or antimicrobial activity)
Organism, effect ([2]; F. nucleatum): F. nucleatum (T)
Organism, effect ([2]; P. gingivalis): P. gingivalis (R)
Organism, effect ([2]; S. mutans): S. mutans (F)
